Experimental data reported in US4916145A, “Substituted n-[(pyridyl)alkyl]aryl-carboxamide” (Hoffmann-La Roche Inc., priority 1987, dated 1990).

What was measured:
[1] = test system: PAF-Induced Platelet Count Decrease; assay: PAF-Induced Platelet Count Decrease; type: in vivo, guinea pig; settings: for inhibition in vivo at 3 mg/kg: Cavia porcellus, Platelet, 0.25 h, iv, 15 minutes pretreatment time, read-out: PAF-Induced Platelet Count Decrease % Inhibition, i.v.
Protocol: Male Hartley guinea pigs weighing between 500 and 900 grams were fed standard guinea pig chow and tap water ad libitum. PAF was solubilized in ethanol and stored as a 2 mM stock solution at -70° C. The stock solution of PAF was diluted to […] in Tris buffer pH 7.4 and 0.1% BSA for all experiments.
Guinea pigs were anesthetized with urethane (1.6 g/kg, i.p.). A catheter (PE50) was introduced into the right carotid artery for withdrawing blood. A second catheter PE10) was introduced into the jugular vein for injecting drugs and for administering the PAF challenge (75 ng/kg, i.v.). A control blood sample was obtained and platelets were counted in a whole blood platelet analyzer. PAF was then given and blood samples were taken 15, 30, and 60 seconds after the challenge for platelet counts. Fifteen minutes later, selected concentrations of the test compound were solubilized in DMSO and injected intravenously into a group of 4-6 animals. Only one concentration of the test drug was used in each animal group. Fifteen minutes after drug injection, blood samples were taken before and 15, 30, and 60 sec after the PAF challenge, and analyzed for platelet number.
Animals were anesthetized with sodium pentobarbital (35 mg/kg. i.p.) and the carotid artery and jugular vein were cannulated as described above. The cannulae were exteriorized at the base of the neck and the animals were allowed to recover. Conscious, unrestrained guinea pigs which were allowed to recover from surgery for at least 18 hours were used in the experiments. The animals were challenged two times with PAF (120 ng/kg, i.v.); the first to establish a consistent response to PAF and the second to serve as a control from the PAF challenge. Blood samples were taken before and 15, 30, and 45 seconds after PAF challenge and platelets were counted. Thirty minutes after the control PAF challenge, the animals were orally dosed with either gum acacia or the test compound. Animals were then challenged with PAF at 1, 3, 5, and 24 hours after the administration of the drug.
The % change, i.e., the difference in platelet number before and after PAF challenge was calculated by: [formula] The % activity of drug was then determined by
Statistical significance (p≤0.05) of the difference between the mean PAF control and mean drug treated activity was determined with the pared Students's t-test.

[2] = test system: PAF-Induced Bronchoconstriction; assay: PAF-Induced Bronchoconstriction Assay; type: in vivo, guinea pig; settings: for inhibition in vivo at 1 mg/kg / inhibition in vivo at 50 mg/kg: Cavia porcellus; for inhibition in vivo at 1 mg/kg: 1 min; for inhibition in vivo at 50 mg/kg: po, 2 hours pretreatment
Protocol: The in vivo ability of compounds to inhibit PAF-induced bronchoconstriction in guinea pigs was assessed by the intravenous and oral routes of administration. The intravenous technique utilized male guinea pigs (Hartley strain, Charles River) weighing 400-600 g. Animals were anesthetized with urethane (2 g/kg) intraperitoneally and a polyethylene cannula was inserted into the jugular vein for intravenous drug administration. Tracheal pressure ([…]) was recorded from a Statham pressure transducer (P 32 AA). Propranolol was administered 5 minutes prior to challenge with PAF. Two minutes later spontaneous breathing was arrested with succinylcholine chloride (1.2 mg/kg) administered intravenously, and the animals were ventilated with a Harvard (Model 680) small animal respirator set at 40 breaths/min and 4.0 cc stroke volume. Control vehicle or test drug was administered through the cannula into the jugular vein 1 minute before the animals were challenged with a maximum constrictory dose of PAF (1.0 μg/kg) given intravenously. The change in tracheal pressure was averaged for four control and four drug-treated animals and percent inhibition was calculated.
For determination of oral activity, animals were dosed with test compound or vehicle two hours prior to challenge with PAF (1.0 μg/kg, i.v.).
The change in tracheal pressure is determined by subtracting the steady state baseline achieved after administration of succinylcholine from the peak bronchoconstriction seen after challenge with PAF. The mean change in tracheal pressure is calculated for each test compound and compared to the mean change in tracheal pressure for the control animals to give the percent inhibition of bronchoconstriction. The standard error is calculated as the standard error of the mean.

[3] = molecular target: T1, PAF binding, dog platelets (Canis lupus familiaris, UniProt A0A8I3NSH0); assay: PAF Binding Assay (3H-PAF binding to washed dog platelets); settings: 10 minutes at room temperature
T1 sequence (A0A8I3NSH0 1-343): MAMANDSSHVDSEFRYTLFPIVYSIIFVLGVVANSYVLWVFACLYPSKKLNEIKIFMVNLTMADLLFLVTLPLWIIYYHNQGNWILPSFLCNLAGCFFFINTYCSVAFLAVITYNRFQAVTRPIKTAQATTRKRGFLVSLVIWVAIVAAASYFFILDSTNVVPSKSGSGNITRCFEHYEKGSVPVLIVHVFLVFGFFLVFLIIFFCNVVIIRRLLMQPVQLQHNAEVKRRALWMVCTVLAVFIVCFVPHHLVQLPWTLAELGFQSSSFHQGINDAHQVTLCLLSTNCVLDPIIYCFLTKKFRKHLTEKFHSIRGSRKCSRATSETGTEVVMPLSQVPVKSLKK
Protocol: The binding assay was performed in 400 μl polyethylene microcentrifuge tubes (Beckman) containing 50 μl of an oil mixture of 2 parts Siliconol AR200 (Serva): 1 part Silicone Fluid (Arthur H. Thomas). Buffer, standards, or analogs 150 μl total volume) were added to the tubes. Radiolabelled ^3 H-PAF (50 μl) was then added to the tubes. The reaction was started by the addition of 50 μl of dog platelets (2×10^7 platelets). The tubes were capped, inverted several times to mix, and incubated for 10 minutes at room temperature. The platelets were separated from the incubation mixture by centrifuging 1 minute in a Beckman Microfuge B centrifuge. The tip of the microfuge tube was cut off, and the platelets were washed out of the tip with 200 μl of 50% methanol (Burdick and Jackson). Aquasol (NEN, 10 ml) was added and the radioactivity in the samples was determined using an LS 8100 Beckman liquid scintillation counter linked to a Techtran tape recorder. Data was processed through an in-house computer system. Alternatively, radioactivity was determined using a Searle Mark III liquid scintillation counter linked to a Iso-Data microprocessor.
Blood was collected from anesthesized or unanesthesized dogs into 5ml plastic centrifuge tubes containing 3.8% sodium citrate as the anticoagulant (1 volume of citrate/9 volumes of blood). The red cells were removed by centrifugation for 15 minutes at 600 rpm (100-125 g) at room temperature. An aliquot of the supernatant platelet rich Plasma (PRP) was saved for cell counting and the remainder was acidified to pH 6.5 with 0.15M citric acid. The platelet pellet was obtained after a 10 minute centrifugation at 2000 rpm (1000 g) at room temperature. Washed platelets were prepared by resuspending the platelet pellet once with PBS containing 1 mM EDTA, centrifuging as noted, and then resuspending the platelets in 0.1% BSA-PBS. An aliquot of the washed platelets was counted, platelets used for binding assays were diluted to 2×10^7 platelets/assay tube (4×10^8 platelets/ml).

[4] = 1 mg/kg iv, 1 minute pretreatment

For `O=C(NCCCCc1cccnc1)c1ccc(-c2ccccc2)c(-c2ccccc2)c1` [3,4-Diphenyl-N-[4-(3-pyridinyl)butyl]-benzamide], the inhibition in vivo at 3 mg/kg [1] was 49%, the inhibition in vivo at 1 mg/kg [2, 4] was 21 ± 4% and the inhibition in vivo at 50 mg/kg [2] was 33 ± 12%.

`C=CCc1cc(C(=O)N[C@H](C)CCCc2cccnc2)ccc1-c1ccc(OC)c(OC)c1` [(R)-3',4'-Dimethoxy-N-[1-methyl-4-(3-pyridinyl)butyl]-2-(2-propenyl)-[1,1'-biphenyl]-4-carboxamide] was tested, and the IC50 [3] was 80 nM, the inhibition in vivo at 1 mg/kg [2, 4] was 80 ± 11% and the inhibition in vivo at 50 mg/kg [2] was 93 ± 3%.

Work on `COc1cccc(-c2ccc(C(=O)NCCCCc3cccnc3)cc2-c2cccc(OC)c2)c1` [3,4-bis-(3-Methoxyphenyl)-N-[4-(3-pyridinyl)butyl]-benzamide] yielded an inhibition in vivo at 3 mg/kg [1] of 4% and an inhibition in vivo at 1 mg/kg [2, 4] of 12 ± 6%.

`CCCCc1cc(C(=O)N[C@H](C)CCCc2cccnc2)ccc1-c1ccc(OC)c(OC)c1` [(R)-2-Butyl-3',4'-dimethoxy-N-[1-Methyl-4-(3-pyridinyl)butyl][1,1'-biphenyl]-4-carboxamide] was tested, and the inhibition in vivo at 1 mg/kg [2, 4] was 55 ± 12%.

In the case of `COc1ccc(-c2ccc(C(=O)NCCCCc3cccnc3)cc2-c2ccc(OC)cc2)cc1` [3,4-bis-(4,Methoxyphenyl)-N-[4-(3-pyridinyl)butyl]-benzamide], the IC50 [3] is reported as 125 nM and the inhibition in vivo at 1 mg/kg [2, 4] is reported as 26 ± 6%.

For `Cc1ccc(-c2ccc(-c3nnn(CCCCCCc4cccnc4)n3)cc2)cc1C` [3-[6-[5-(3',4'-Dimethyl-[1,1'-biphenyl]-4-yl)-2H-tetrazol-2-yl]hexyl]pyridine], the IC50 [3] was greater than 1000 nM and the inhibition in vivo at 1 mg/kg [2, 4] was 40 ± 4%.

In the case of `COc1ccc(-c2ccc(C(=O)NC(C)CCCc3cccnc3)cc2)cc1OC` (racemic) [(rac.)-3',4'-Dimethoxy-N-[1-methyl-4-(3-pyridinyl)butyl][1,1'-biphenyl]-4-carboxamide], the inhibition in vivo at 3 mg/kg [1] is reported as 26% and the “PAF-Induced Platelet Count Decrease % Inhibition, po” value ([1]; po, no dose footnote printed) is reported as 75 ± 21%.

In the case of `O=C(NCCCCc1cccnc1)c1cccc(-c2ccccc2)c1` [N-[4-(3-pyridinyl)butyl][1,1'-biphenyl]-3-carboxamide], the IC50 [3] is reported as 620 nM and the inhibition in vivo at 1 mg/kg [2, 4] is reported as 14 ± 10%.

Compound `CCCc1cc(C(=O)N[C@H](C)CCCc2cccnc2)ccc1-c1ccccc1` [(R)-2-Propyl-N-[1-methyl-4-(3-pyridinyl)-butyl]-[1,1'-biphenyl]-4-carboxamide] has an IC50 [3] of 50 nM and an inhibition in vivo at 1 mg/kg [2, 4] of 12 ± 6%.

Work on `CCCCc1cc(C(=O)NCCCCc2cccnc2)ccc1-c1ccc(OC)c(OC)c1` [2-Butyl-3',4'-dimethoxy-N-[4-(3-pyridinyl)butyl][1,1'-biphenyl)-4-carboxamide] yielded an inhibition in vivo at 1 mg/kg [2, 4] of 6 ± 4%.

Compound `CCCc1cc(C(=O)NCCCCc2cccnc2)ccc1-c1ccccc1` [2-Propyl-N-[4-(3-pyridinyl)butyl][1,1'-biphenyl]-4-carboxamide] has an IC50 [3] of 60 nM and an inhibition in vivo at 1 mg/kg [2, 4] of 38 ± 8%.

Compound `COc1ccc(-c2ccc(C(=O)NCCCCc3cccnc3)cc2OC)cc1OC` [2,3',4'-trimethoxy-N-[4-(3-pyridinyl)butyl]-[1,1'-biphenyl]-4-carboxamide] has an IC50 [3] of 300 nM and an inhibition in vivo at 1 mg/kg [2, 4] of 58 ± 10%.

`O=C(NCCCCc1cccnc1)c1ccc(-c2cccc(F)c2)c(-c2cccc(F)c2)c1` [3,4-bis-(3-Fluorophenyl)-N-[4-(3-pyridinyl)butyl]-benzamide] was tested, and the IC50 [3] was 400 nM and the inhibition in vivo at 1 mg/kg [2, 4] was 12 ± 2%.

Compound `COc1ccc(-c2ccc(C(=O)NCCCCc3cccnc3)cc2Br)cc1OC` [2-Bromo-3',4'-dimethoxy-N-[4-(3-pyridinyl)butyl]-[1,1'biphenyl]-4-carboxamide] has an IC50 [3] of 200 nM, an inhibition in vivo at 1 mg/kg [2, 4] of 81 ± 10% and an inhibition in vivo at 50 mg/kg [2] of 74 ± 12%.

`CCc1cc(C(=O)N[C@H](C)CCCc2cccnc2)ccc1-c1ccc(OC)c(OC)c1` [(R)-2-Ethyl-3',4'-dimethoxy-N-[1-methyl-4-(3-pyridinyl)butyl][1,1'-biphenyl]-4-carboxamide] gave an IC50 [3] of 4 nM, an inhibition in vivo at 1 mg/kg [2, 4] of 93 ± 1% and an inhibition in vivo at 50 mg/kg [2] of 89 ± 5%.

`COc1ccc(-c2ccc(C(=O)N[C@H](C)CCCc3cccnc3)cc2Br)cc1OC` [(R)-2-Bromo-3',4'-dimethoxy-N-[1-methyl-4-(3-pyridinyl)-butyl][1,1'-biphenyl]-4-carboxamide] showed an IC50 [3] of 180 nM, an inhibition in vivo at 1 mg/kg [2, 4] of 98 ± 0.7% and an inhibition in vivo at 50 mg/kg [2] of 97 ± 1%.

`Cc1ccc(-c2ccc(-c3nnn(CCCCc4cccnc4)n3)cc2)cc1C` [3-[4-[5-(3',4'-Dimethyl-[1,1'-biphenyl]-4-yl)-2H-tetrazol-2-yl]butyl]pyridine] was tested, and the IC50 [3] was greater than 1000 nM and the inhibition in vivo at 1 mg/kg [2, 4] was 17 ± 15%.

`COc1ccc(-c2ccc(C(=O)N[C@H](C)CCCc3cccnc3)cc2[N+](=O)[O-])cc1OC` [(R)-2-Nitro-3',4'-dimethoxy-N-[1-methyl-4-(3-pyridinyl)-butyl][1,1'-biphenyl]-4-carboxamide] gave an IC50 [3] of 200 nM, an inhibition in vivo at 1 mg/kg [2, 4] of 97 ± 4% and an inhibition in vivo at 50 mg/kg [2] of 89 ± 8%.

For `Cc1ccc(-c2ccc(C(=S)NCCCCc3cccnc3)cc2)cc1C` [3',4'-Dimethyl-N-[4-(3-pyridinyl)butyl][1,1-biphenyl]-4-carbothioamide], the IC50 [3] was 600 nM and the “PAF-Induced Bronchoconstriction % Inhibition, 1 mg/kg iv” value [2, 4] was “potentiation”.

In the case of `CCCc1cc(C(=O)N[C@H](C)CCCc2cccnc2)ccc1-c1ccc(OC)c(OC)c1` [(R)-3',4'-Dimethoxy-N-[1-methyl-4-(3-pyridinyl)butyl]-2-propyl-[1,1'-biphenyl]-4-carboxamide], the IC50 [3] is reported as 50 nM and the inhibition in vivo at 1 mg/kg [2, 4] is reported as 28 ± 12%.

`C[C@H](CCCc1cccnc1)NC(=O)c1ccc(-c2ccccc2)c(-c2ccccc2)c1` [(R)-3,4-diphenyl-N-[1-methyl-4-(3-pyridinyl)-butyl]benzamide] showed an IC50 [3] of 250 nM and an inhibition in vivo at 1 mg/kg [2, 4] of 31 ± 4%.

`CCCCc1cc(C(=O)NCCCCc2cccnc2)ccc1-c1ccccc1` [2-Butyl-N-[4-(3-pyridinyl)butyl][1,1'-biphenyl]-4-carboxamide] gave an IC50 [3] of 500 nM and an inhibition in vivo at 1 mg/kg [2, 4] of 27 ± 10%.

Work on `COc1ccc(-c2ccc(C(=O)N[C@H](C)CCCc3cccnc3)cc2)cc1OC` [(R)-3',4'-Dimethoxy-N-[1-methyl-4-(3-pyridinyl)butyl][1,1'-biphenyl]-4-carboxamide] yielded an inhibition in vivo at 1 mg/kg [2, 4] of 65 ± 11% and an inhibition in vivo at 50 mg/kg [2] of 88 ± 3%.

Work on `COc1ccc(-c2ccc(C(=O)NCCCCc3cccnc3)cc2[N+](=O)[O-])cc1OC` [2-Nitro-3',4'-dimethoxy-N-[4-(3-pyridinyl)-butyl][1,1'-biphenyl]-4-carboxamide] yielded an IC50 [3] of 200 nM, an inhibition in vivo at 1 mg/kg [2, 4] of 81 ± 15% and an inhibition in vivo at 50 mg/kg [2] of 62 ± 15%.

`O=C(NCCCCc1cccnc1)c1ccc(C2CCCCC2)cc1` [4-Cyclohexyl-N-[4-(3-pyridinyl)butyl]-benzamide] gave an IC50 [3] of 250 nM and an inhibition in vivo at 1 mg/kg [2, 4] of 17 ± 7%.

`CCCCc1ccc(C(=O)NCCCCc2cccnc2)cc1CCCC` [3,4-Dibutyl-N-[4-(3-pyridinyl)butyl]benzamide] showed an IC50 [3] greater than 1000 nM.

`Cc1ccc(-c2ccc(-c3nnn(CCCc4cccnc4)n3)cc2)cc1C` [3-[3-[5-(3',4'-Dimethyl-[1,1'-biphenyl]-4-yl)-2H-tetrazol-2-yl]propyl]pyridine] showed an IC50 [3] greater than 1000 nM and an inhibition in vivo at 1 mg/kg [2, 4] of 11 ± 3%.
